Patent US20100234390A1, “NOVEL COMPOUND AND THEIR USE” (priority 2007, published 2010)

Legend:
Assay in all cases: Agar dilution MIC
Conditions in all cases: 35° C., 16-20 hours
[1] = tested on: S. aureus ATCC 43300; format: cell-based, Staphylococcus aureus
Experimental: (§1) Briefly, the compounds of invention were weighed, dissolved in dimethyl sulfoxide, serially two fold diluted in the same solvent and then incorporated into molten Mueller Hinton Agar (MHA) in a petridish just before solidification, with each petridish containing a different concentration of a compound.
(§2) The bacterial inoculum was prepared by picking 3 to 5 well isolated bacterial colonies with the same morphological appearance from an 18-24 hours old culture with an inoculating loop, transferring the growth to a tube containing 3 mL of normal saline and adjusting the turbidity of the saline suspension to 0.5 Mc Farland Turbidity Standard equivalent to a bacterial population of 1.5×10^8 colony forming units (CFU) per mL of suspension. The suspension was diluted 1:10 in saline (i.e. 0.5 mL suspension 4.5 mL saline) to get a bacterial population of 1.5×10^7 CFU/mL as inoculum.
(§3) The inoculated petridishes were incubated at 35° C. in an ambient atmosphere for 16-20 hours.

[2] = tested on: S. aureus ATCC 29213; format: cell-based, Staphylococcus aureus
Experimental: as §1, §2, §3

[3] = tested on: S. aureus MRO 00055; format: cell-based, Staphylococcus aureus
Experimental: as §1, §2, §3

[4] = tested on: S. aureus MRO 002053; format: cell-based, Staphylococcus aureus
Experimental: as §1, §2, §3

[5] = tested on: S. aureus MRO 00013; format: cell-based, Staphylococcus aureus
Experimental: as §1, §2, §3

[6] = tested on: S. aureus MRO 00059; format: cell-based, Staphylococcus aureus
Experimental: as §1, §2, §3

[7] = tested on: S. aureus MRO 00048; format: cell-based, Staphylococcus aureus
Experimental: as §1, §2, §3

[8] = tested on: S. aureus MRO 0003; format: cell-based, Staphylococcus aureus
Experimental: as §1, §2, §3

[9] = tested on: S. aureus MRO 00030; format: cell-based, Staphylococcus aureus
Experimental: as §1, §2, §3

[10] = tested on: S. aureus MRO 0001; format: cell-based, Staphylococcus aureus
Experimental: as §1, §2, §3

[11] = tested on: S. haemolyticus MRO 02064; format: cell-based
Experimental: as §1, §2, §3

[12] = tested on: S. saprophyticus MRO 02003; format: cell-based
Experimental: as §1, §2, §3

[13] = tested on: S. epidermidis MRO 002046; format: cell-based
Experimental: as §1, §2, §3

[14] = tested on: S. epidermidis MRO 02095; format: cell-based
Experimental: as §1, §2, §3

[15] = tested on: S. epidermidis MRO 02002; format: cell-based
Experimental: as §1, §2, §3

[16] = tested on: S. epidermidis MRO 02045; format: cell-based
Experimental: as §1, §2, §3

[17] = tested on: E. faecalis ATCC 29212; format: cell-based, Enterococcus faecalis
Experimental: as §1, §2, §3

[18] = tested on: E. faecalis MRO 04205; format: cell-based, Enterococcus faecalis
Experimental: as §1, §2, §3

[19] = tested on: E. faecalis MRO 04050; format: cell-based, Enterococcus faecalis
Experimental: as §1, §2, §3

[20] = tested on: E. faecalis MRO 04035; format: cell-based, Enterococcus faecalis
Experimental: as §1, §2, §3

[21] = tested on: E. faecalis ATCC 51299; format: cell-based, Enterococcus faecalis
Experimental: as §1, §2, §3

[22] = tested on: M. catarrhalis ATCC 43628; format: cell-based, Moraxella catarrhalis
Experimental: as §1, §2, §3

[23] = tested on: M. catarrhalis ATCC 43627; format: cell-based, Moraxella catarrhalis
Experimental: as §1, §2, §3

[24] = tested on: M. catarrhalis ATCC 43617; format: cell-based, Moraxella catarrhalis
Experimental: as §1, §2, §3

[25] = tested on: E. faecium MRO 04038; format: cell-based, Enterococcus faecium
Experimental: as §1, §2, §3

[26] = tested on: E. faecium MRO 04037; format: cell-based, Enterococcus faecium
Experimental: as §1, §2, §3

[27] = tested on: E. faecium MRO 04198; format: cell-based, Enterococcus faecium
Experimental: as §1, §2, §3

[28] = tested on: E. faecium ATCC 700221; format: cell-based, Enterococcus faecium
Experimental: as §1, §2, §3

Compound	Antimicrobial Screening (MIC) [1]	Antimicrobial Screening (MIC) [2]	Antimicrobial Screening (MIC) [3]	Antimicrobial Screening (MIC) [4]	Antimicrobial Screening (MIC) [5]	Antimicrobial Screening (MIC) [6]	Antimicrobial Screening (MIC) [7]	Antimicrobial Screening (MIC) [8]	Antimicrobial Screening (MIC) [9]	Antimicrobial Screening (MIC) [10]	Antimicrobial Screening (MIC) [11]	Antimicrobial Screening (MIC) [12]	Antimicrobial Screening (MIC) [13]	Antimicrobial Screening (MIC) [14]	Antimicrobial Screening (MIC) [15]	Antimicrobial Screening (MIC) [16]	Antimicrobial Screening (MIC) [17]	Antimicrobial Screening (MIC) [18]	Antimicrobial Screening (MIC) [19]	Antimicrobial Screening (MIC) [20]	also measured
COC(=S)NC[C@H]1CN(c2ccc(N3CCN(C(=O)CNS(C)(=O)=O)CC3)c(F)c2)C(=O)O1 [Example 43]	0.5 µg/mL	0.5 µg/mL	0.5 µg/mL	0.5 µg/mL	0.5 µg/mL	0.5 µg/mL	0.5 µg/mL	0.5 µg/mL	0.5 µg/mL	0.25 µg/mL	0.5 µg/mL	0.5 µg/mL	0.25 µg/mL	0.5 µg/mL	0.5 µg/mL	0.5 µg/mL	0.25 µg/mL	0.25 µg/mL	0.25 µg/mL	0.25 µg/mL	Antimicrobial Screening (MIC) [21]: 0.25 µg/mL; Antimicrobial Screening (MIC) [22]: 2 µg/mL; Antimicrobial Screening (MIC) [23]: 2 µg/mL; Antimicrobial Screening (MIC) [24]: 1 µg/mL; Antimicrobial Screening (MIC) [25]: 0.25 µg/mL; Antimicrobial Screening (MIC) [26]: 0.25 µg/mL; Antimicrobial Screening (MIC) [27]: 0.5 µg/mL; Antimicrobial Screening (MIC) [28]: 0.25 µg/mL
COC(=S)NC[C@H]1CN(c2ccc(N3CCN(C(=O)c4ccc([N+](=O)[O-])o4)CC3)c(F)c2)C(=O)O1 [Example 7, (S)—O-Methyl(3-(3-fluoro-4-(4-(5-nitrofuran-2-carbonyl)piperazin-1-yl)phenyl)-2-oxooxazolidin-5-yl)methylcarbamothioate]	0.125 µg/mL	0.125 µg/mL	0.25 µg/mL	0.06 µg/mL	0.25 µg/mL	0.25 µg/mL	0.125 µg/mL	0.25 µg/mL	0.125 µg/mL	0.125 µg/mL	0.125 µg/mL	0.125 µg/mL	0.03 µg/mL	0.03 µg/mL	0.03 µg/mL	0.125 µg/mL	0.125 µg/mL	0.125 µg/mL	0.125 µg/mL	0.125 µg/mL	Antimicrobial Screening (MIC) [21]: 0.125 µg/mL; Antimicrobial Screening (MIC) [22]: 0.25 µg/mL; Antimicrobial Screening (MIC) [23]: 0.25 µg/mL; Antimicrobial Screening (MIC) [24]: 0.25 µg/mL; Antimicrobial Screening (MIC) [25]: 0.125 µg/mL; Antimicrobial Screening (MIC) [26]: 0.25 µg/mL; Antimicrobial Screening (MIC) [27]: 0.25 µg/mL; Antimicrobial Screening (MIC) [28]: 0.125 µg/mL
